Experimental data reported in ChEMBL document CHEMBL3758169, “4-Aminoindazolyl-dihydrofuro[3,4-d]pyrimidines as non-covalent inhibitors of mutant epidermal growth factor receptor tyrosine kinase” (Bioorg Med Chem Lett, 2016).

Assays:
[1] = target: Leucine-rich repeat serine/threonine-protein kinase 2 (Homo sapiens) (UniProt Q5S007); assay: Inhibition of LRRK2 (unknown origin) at 100 nM
TAK1/TAB1 (Homo sapiens) = TAK1/TAB1 (Homo sapiens) (UniProt Q15750+O43318); assay: Inhibition of TAK1-TAB1 (unknown origin) at 100 nM; format: protein-complex assay
[2] = test system: Epidermal growth factor receptor (Homo sapiens), P00533 [L858R]; assay: Inhibition of EGFR L858R mutant (unknown origin) at 100 nM; format: protein assay
[3] = Apparent permeability from the apical to basolateral side in MDCK cells; format: ADME, cell-based, Canis lupus familiaris; conditions: dog
[4] = target: Tyrosine-protein kinase ZAP-70 (Homo sapiens) (UniProt P43403); assay: Inhibition of ZAP70 (unknown origin) at 100 nM
Tyrosine-protein kinase ZAP-70 (Homo sapiens), sequence (P43403 whole entry): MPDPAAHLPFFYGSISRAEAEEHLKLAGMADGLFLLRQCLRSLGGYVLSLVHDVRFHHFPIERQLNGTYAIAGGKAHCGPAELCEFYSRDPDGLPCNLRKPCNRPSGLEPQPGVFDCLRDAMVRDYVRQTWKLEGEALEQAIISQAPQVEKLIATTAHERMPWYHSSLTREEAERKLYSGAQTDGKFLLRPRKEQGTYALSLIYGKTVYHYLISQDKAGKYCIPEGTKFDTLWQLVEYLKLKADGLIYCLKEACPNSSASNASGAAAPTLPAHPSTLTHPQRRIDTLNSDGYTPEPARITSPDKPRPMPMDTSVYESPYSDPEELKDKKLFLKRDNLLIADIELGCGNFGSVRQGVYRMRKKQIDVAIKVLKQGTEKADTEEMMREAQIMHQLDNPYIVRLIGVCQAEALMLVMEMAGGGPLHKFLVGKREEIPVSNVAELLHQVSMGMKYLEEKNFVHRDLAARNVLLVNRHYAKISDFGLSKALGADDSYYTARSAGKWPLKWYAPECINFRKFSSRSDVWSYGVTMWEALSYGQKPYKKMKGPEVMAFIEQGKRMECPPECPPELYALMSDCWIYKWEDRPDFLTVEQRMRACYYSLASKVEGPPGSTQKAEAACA

[5] = target: Insulin receptor (Homo sapiens) (UniProt P06213); assay: Inhibition of INSR (unknown origin) at 100 nM
[6] = target: T1, Epidermal growth factor receptor (Homo sapiens, UniProt P00533); assay: Inhibition of EGFR deletion (746 to 750 residues) mutant (unknown origin); format: protein assay
[7] = target: T2, Inhibitor of nuclear factor kappa-B kinase subunit epsilon (Homo sapiens) (UniProt Q14164); assay: Inhibition of IKKepsilon (unknown origin) at 100 nM
T2 sequence (whole entry): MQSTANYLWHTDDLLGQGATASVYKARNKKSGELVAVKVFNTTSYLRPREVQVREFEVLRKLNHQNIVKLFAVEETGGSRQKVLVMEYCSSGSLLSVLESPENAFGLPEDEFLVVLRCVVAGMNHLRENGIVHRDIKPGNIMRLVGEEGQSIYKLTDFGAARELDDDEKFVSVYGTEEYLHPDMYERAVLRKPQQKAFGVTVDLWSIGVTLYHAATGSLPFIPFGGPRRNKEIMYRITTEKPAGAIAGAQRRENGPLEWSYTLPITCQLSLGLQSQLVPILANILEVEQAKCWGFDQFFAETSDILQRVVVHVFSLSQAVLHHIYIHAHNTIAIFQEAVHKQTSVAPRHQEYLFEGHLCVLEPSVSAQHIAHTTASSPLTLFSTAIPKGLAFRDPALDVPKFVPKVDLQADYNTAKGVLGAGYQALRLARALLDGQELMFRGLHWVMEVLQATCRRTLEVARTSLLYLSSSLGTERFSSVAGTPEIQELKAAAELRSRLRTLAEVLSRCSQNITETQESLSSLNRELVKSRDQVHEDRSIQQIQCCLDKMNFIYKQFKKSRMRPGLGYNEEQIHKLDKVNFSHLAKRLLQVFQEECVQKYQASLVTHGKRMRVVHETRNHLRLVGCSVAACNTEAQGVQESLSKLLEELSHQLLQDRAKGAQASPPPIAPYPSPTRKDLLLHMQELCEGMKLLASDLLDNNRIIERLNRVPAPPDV

[8] = target: Mitogen-activated protein kinase kinase kinase 14 (Homo sapiens) (UniProt Q99558); assay: Inhibition of NIK (unknown origin) at 100 nM
[9] = target: Hepatocyte growth factor receptor (Homo sapiens) (UniProt P08581); assay: Inhibition of MET (unknown origin) at 100 nM
[10] = target: Tyrosine-protein kinase BTK (Homo sapiens) (UniProt Q06187); assay: Inhibition of BTK (unknown origin) at 100 nM
Tyrosine-protein kinase BTK (Homo sapiens), sequence (Q06187 whole entry): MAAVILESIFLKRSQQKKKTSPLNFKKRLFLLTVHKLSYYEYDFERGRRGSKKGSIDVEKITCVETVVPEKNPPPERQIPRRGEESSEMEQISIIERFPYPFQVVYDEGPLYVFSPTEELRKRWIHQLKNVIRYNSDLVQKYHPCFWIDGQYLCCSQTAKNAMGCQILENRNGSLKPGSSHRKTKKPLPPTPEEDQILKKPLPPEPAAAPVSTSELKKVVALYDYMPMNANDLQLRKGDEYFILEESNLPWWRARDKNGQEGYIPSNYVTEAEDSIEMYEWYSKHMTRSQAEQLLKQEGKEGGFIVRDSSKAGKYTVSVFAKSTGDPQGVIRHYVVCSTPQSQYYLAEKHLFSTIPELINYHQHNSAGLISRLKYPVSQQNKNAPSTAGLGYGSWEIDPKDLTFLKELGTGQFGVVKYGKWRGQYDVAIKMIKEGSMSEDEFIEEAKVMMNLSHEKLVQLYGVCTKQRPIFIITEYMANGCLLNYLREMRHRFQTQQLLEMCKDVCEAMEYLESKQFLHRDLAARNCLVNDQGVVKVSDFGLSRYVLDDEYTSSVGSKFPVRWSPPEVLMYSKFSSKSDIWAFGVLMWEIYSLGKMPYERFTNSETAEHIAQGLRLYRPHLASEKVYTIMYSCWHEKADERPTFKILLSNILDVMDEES

[11] = target: T1, Epidermal growth factor receptor; assay: Inhibition of EGFR (unknown origin) at 100 nM
[12] = target: Ribosomal protein S6 kinase alpha-1 (Homo sapiens) (UniProt Q15418); assay: Inhibition of RSK1 (unknown origin) at 100 nM
[13] = target: Inhibitor of nuclear factor kappa-B kinase subunit alpha (Homo sapiens) (UniProt O15111); assay: Inhibition of IKKalpha (unknown origin) at 100 nM
Inhibitor of nuclear factor kappa-B kinase subunit alpha (Homo sapiens), sequence (O15111 whole entry): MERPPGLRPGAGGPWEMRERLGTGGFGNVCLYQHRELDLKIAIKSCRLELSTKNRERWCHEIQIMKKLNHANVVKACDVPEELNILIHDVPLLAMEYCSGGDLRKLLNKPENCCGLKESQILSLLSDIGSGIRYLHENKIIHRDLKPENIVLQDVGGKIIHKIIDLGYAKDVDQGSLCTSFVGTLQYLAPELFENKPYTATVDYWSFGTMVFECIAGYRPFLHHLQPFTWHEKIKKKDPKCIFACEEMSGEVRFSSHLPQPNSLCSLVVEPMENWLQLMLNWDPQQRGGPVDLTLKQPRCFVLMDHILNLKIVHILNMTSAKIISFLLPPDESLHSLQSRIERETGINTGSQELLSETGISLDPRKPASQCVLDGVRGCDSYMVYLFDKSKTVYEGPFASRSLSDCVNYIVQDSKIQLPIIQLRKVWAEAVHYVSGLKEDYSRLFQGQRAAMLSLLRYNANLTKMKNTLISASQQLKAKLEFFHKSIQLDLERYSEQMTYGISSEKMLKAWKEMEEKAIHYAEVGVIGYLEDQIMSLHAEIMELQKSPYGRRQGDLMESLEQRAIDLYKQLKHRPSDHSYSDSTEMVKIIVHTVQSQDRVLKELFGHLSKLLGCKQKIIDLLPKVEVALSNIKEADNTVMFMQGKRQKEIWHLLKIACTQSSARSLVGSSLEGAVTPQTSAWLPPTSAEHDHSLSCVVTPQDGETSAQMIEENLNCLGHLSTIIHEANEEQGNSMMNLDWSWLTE

[14] = target: Serine/threonine-protein kinase TBK1 (Homo sapiens) (UniProt Q9UHD2); assay: Inhibition of TBK1 (unknown origin) at 100 nM
[15] = target: Serine/threonine-protein kinase PAK 4 (Homo sapiens) (UniProt O96013); assay: Inhibition of PAK4 (unknown origin) at 100 nM
[16] = target: Epidermal growth factor receptor (Homo sapiens, UniProt P00533, L858R); assay: Inhibition of EGFR L858R mutant (unknown origin); format: protein assay
[17] = target: Mitogen-activated protein kinase 14 (Homo sapiens) (UniProt Q16539); assay: Inhibition of p38alpha (unknown origin) by direct binding assay at 100 nM
Mitogen-activated protein kinase 14 (Homo sapiens), sequence (Q16539 whole entry): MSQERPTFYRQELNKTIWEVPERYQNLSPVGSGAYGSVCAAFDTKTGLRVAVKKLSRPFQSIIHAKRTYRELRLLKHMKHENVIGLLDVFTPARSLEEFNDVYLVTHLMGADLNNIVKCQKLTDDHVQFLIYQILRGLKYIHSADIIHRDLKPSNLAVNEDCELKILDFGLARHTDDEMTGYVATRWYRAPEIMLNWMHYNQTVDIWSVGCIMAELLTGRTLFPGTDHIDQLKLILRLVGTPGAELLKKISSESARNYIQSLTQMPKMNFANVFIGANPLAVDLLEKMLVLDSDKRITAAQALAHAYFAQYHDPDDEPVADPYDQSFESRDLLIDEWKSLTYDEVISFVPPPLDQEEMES

[18] = target: Platelet-derived growth factor receptor beta (Homo sapiens) (UniProt P09619); assay: Inhibition of PDGFRbeta (unknown origin) at 100 nM
Platelet-derived growth factor receptor beta (Homo sapiens), sequence (P09619 whole entry): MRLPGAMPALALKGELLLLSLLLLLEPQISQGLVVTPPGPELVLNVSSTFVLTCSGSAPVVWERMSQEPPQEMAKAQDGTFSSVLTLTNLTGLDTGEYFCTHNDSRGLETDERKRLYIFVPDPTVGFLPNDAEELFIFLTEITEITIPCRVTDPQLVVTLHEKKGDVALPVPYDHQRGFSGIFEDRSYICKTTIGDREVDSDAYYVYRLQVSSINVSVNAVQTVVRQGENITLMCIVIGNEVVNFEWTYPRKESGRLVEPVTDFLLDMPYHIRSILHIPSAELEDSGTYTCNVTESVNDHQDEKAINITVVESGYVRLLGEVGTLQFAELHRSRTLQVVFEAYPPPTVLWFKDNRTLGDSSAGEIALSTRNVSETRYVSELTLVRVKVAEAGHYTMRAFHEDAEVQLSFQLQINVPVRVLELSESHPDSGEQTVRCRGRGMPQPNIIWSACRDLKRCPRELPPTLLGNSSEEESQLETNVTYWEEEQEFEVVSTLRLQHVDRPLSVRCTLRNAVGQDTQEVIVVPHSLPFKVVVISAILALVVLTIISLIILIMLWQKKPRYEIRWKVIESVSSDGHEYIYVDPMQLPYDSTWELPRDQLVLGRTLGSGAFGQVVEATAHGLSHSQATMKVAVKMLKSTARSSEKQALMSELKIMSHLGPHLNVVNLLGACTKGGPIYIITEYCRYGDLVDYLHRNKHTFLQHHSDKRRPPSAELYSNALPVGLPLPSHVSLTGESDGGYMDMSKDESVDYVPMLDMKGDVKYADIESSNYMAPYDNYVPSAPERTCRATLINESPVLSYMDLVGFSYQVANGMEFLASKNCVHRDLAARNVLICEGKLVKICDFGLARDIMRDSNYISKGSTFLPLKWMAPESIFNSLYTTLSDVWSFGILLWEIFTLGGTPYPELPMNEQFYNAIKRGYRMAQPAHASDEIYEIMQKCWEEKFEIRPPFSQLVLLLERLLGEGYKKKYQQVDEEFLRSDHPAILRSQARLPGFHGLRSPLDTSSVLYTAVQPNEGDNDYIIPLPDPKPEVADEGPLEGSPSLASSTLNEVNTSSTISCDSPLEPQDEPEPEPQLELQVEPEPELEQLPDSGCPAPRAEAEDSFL

Homo sapiens = species on record: Homo sapiens; assay: Inhibition of PKCbeta1 (unknown origin) at 100 nM
[19] = target: Ephrin type-A receptor 2 (Homo sapiens) (UniProt P29317); assay: Inhibition of EPHA2 (unknown origin) at 100 nM
Ephrin type-A receptor 2 (Homo sapiens), sequence (P29317 whole entry): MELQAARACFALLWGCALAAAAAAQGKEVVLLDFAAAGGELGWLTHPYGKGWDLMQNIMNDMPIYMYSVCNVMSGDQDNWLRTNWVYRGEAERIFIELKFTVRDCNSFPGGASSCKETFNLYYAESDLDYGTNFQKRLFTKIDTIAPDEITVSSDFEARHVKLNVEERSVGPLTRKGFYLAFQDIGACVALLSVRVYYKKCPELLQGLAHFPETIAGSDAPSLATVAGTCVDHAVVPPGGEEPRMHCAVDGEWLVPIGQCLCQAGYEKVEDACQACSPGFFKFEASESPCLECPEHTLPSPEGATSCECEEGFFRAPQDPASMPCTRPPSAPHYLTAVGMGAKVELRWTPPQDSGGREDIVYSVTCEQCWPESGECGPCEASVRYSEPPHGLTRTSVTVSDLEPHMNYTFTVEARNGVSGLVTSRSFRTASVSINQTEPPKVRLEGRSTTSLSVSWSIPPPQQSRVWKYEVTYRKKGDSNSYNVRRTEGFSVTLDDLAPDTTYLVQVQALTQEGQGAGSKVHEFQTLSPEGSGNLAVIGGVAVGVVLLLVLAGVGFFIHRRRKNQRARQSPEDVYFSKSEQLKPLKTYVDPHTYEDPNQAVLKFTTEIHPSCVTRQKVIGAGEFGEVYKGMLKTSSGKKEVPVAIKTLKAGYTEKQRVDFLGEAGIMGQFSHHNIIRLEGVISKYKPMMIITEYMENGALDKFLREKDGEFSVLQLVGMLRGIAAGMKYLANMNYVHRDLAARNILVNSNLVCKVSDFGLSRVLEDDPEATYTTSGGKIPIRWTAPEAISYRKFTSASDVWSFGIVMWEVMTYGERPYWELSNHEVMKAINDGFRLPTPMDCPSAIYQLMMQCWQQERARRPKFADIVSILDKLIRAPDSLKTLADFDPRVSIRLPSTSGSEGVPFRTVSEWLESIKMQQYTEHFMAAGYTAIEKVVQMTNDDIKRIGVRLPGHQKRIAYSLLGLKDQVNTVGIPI

[20] = target: Macrophage colony-stimulating factor 1 receptor (Homo sapiens) (UniProt P07333); assay: Inhibition of CSF1R (unknown origin) at 100 nM
[21] = target: Tyrosine-protein kinase SYK (Homo sapiens) (UniProt P43405); assay: Inhibition of SYK (unknown origin) at 100 nM
[22] = target: Serine/threonine-protein kinase D1 (Homo sapiens) (UniProt Q15139); assay: Inhibition of PKD1 (unknown origin) at 100 nM
[23] = target: Proto-oncogene tyrosine-protein kinase Src (Homo sapiens) (UniProt P12931); assay: Inhibition of SRC (unknown origin) at 100 nM
[24] = target: 5'-AMP-activated protein kinase catalytic subunit alpha-1 (Homo sapiens) (UniProt Q13131); assay: Inhibition of PRKAA1 (unknown origin) at 100 nM
5'-AMP-activated protein kinase catalytic subunit alpha-1 (Homo sapiens), sequence (Q13131 whole entry, looked up): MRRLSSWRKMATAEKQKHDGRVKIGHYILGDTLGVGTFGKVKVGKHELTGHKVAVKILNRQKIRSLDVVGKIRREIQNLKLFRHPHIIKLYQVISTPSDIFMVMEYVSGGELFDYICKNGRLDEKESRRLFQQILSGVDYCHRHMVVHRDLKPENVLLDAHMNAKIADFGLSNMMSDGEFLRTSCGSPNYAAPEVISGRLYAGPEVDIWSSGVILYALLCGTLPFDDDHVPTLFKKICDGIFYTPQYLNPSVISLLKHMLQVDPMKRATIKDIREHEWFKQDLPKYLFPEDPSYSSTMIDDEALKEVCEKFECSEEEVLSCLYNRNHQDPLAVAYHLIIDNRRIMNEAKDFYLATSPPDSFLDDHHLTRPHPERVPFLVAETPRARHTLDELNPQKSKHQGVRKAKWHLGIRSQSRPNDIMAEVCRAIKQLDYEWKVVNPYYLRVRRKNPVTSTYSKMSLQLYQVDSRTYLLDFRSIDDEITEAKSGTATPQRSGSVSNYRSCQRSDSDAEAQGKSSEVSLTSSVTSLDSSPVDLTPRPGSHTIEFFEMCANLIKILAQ

[25] = test system: Epidermal growth factor receptor (Homo sapiens), P00533 [T790M]; assay: Inhibition of EGFR T790M mutant (unknown origin) at 100 nM; format: protein assay
[26] = target: Fibroblast growth factor receptor 1 (Homo sapiens) (UniProt P11362); assay: Inhibition of FGFR1 (unknown origin) at 100 nM
[27] = Volume of distribution at steady state in rat; format: ADME, organism-based; conditions: in vivo, read-out: Vdss
[28] = target: Tyrosine-protein kinase JAK2 (Homo sapiens) (UniProt O60674); assay: Inhibition of JAK2 JH1JH2 domain (unknown origin) at 100 nM
[29] = test system: Epidermal growth factor receptor (Homo sapiens), P00533 [L861Q]; assay: Inhibition of EGFR L861Q mutant (unknown origin) at 100 nM; format: protein assay
[30] = target: Insulin-like growth factor 1 receptor (Homo sapiens) (UniProt P08069); assay: Inhibition of IGF1R (unknown origin) at 100 nM
[31] = target: Protein-tyrosine kinase 2-beta (Homo sapiens) (UniProt Q14289); assay: Inhibition of FAK2 (unknown origin) at 100 nM
[32] = target: Dual specificity mitogen-activated protein kinase kinase 1 (Homo sapiens) (UniProt Q02750); assay: Inhibition of MEK1 (unknown origin) at 100 nM
[33] = target: Interleukin-1 receptor-associated kinase 4 (Homo sapiens) (UniProt Q9NWZ3); assay: Inhibition of IRAK4 (unknown origin) at 100 nM

inhibition [1] | inhibition (TAK1/TAB1 (Homo sapiens)) | inhibition [2] | Papp A→B [3] | inhibition [4] | inhibition [5] | Ki [6] | inhibition [7] | inhibition [8] | inhibition [9] | inhibition [10] | inhibition [11] | inhibition [12] | inhibition [13] | inhibition [14] | inhibition [15] | Ki [16] | inhibition [17] | inhibition [18] | inhibition (Homo sapiens) | Compound | further results
7.5% | 3.1% | 90.5% | 9.5 ×10⁻⁶ cm/s | 3.5% | 2% | 0.4 nM | 3.2% | -0.3% | 7.7% | 17% | 93.7% | 19.5% | -1.8% | 9.4% | -3.1% | 1.3 nM | 22.4% | 10.8% | 33% | CC1(C)OCc2c(Nc3n[nH]c4c(Cl)cccc34)nc(-c3cn[nH]c3)nc21 | inhibition [19]: 11.8%; inhibition [20]: 19.1%; inhibition [21]: 7%; inhibition [22]: 8.4%; inhibition [23]: 66.5%; inhibition [24]: 27.8%; inhibition [25]: 91.3%; inhibition [26]: 85.1%; Vd [27]: 3.6 L/kg; inhibition [28]: 14%; inhibition [29]: 95.2%; inhibition [30]: 13.5%; inhibition [31]: 9.1%; inhibition [32]: 4.3%; inhibition [33]: 16.9%
13.2% | 8.9% | 97.7% | 6.7 ×10⁻⁶ cm/s | 9.2% | 5.4% | 0.2 nM | -8.7% | 18% | 7.9% | 19.8% | 97.4% | 13.9% | -5.3% | 7.9% | 0.2% | 0.5 nM | 20.6% | 35.2% | 35.1% | CC1(C)OCc2c(Nc3n[nH]c4ccccc34)nc(-c3cn[nH]c3)nc21 | inhibition [19]: 12.2%; inhibition [20]: 17.5%; inhibition [21]: 0.4%; inhibition [22]: 2.1%; inhibition [23]: 47.3%; inhibition [24]: -3.1%; inhibition [25]: 95.2%; inhibition [26]: 27.7%; Vd [27]: 6 L/kg; inhibition [28]: 1.9%; inhibition [29]: 99.7%; inhibition [30]: 4.4%; inhibition [31]: 9.7%; inhibition [32]: 2%; inhibition [33]: 4.3%
